Where no end group is shown, it is not given here.

The values below come from US20260242478A1, “ANTIBODIES FOR TARGETING PSMA AND CD28 AND USES THEREOF” (Janux Therapeutics, Inc., priority 2023, published 2026).

The subject of the assay is anti-CD28 scFv. The assay can be described thus: Panning ELISA of clonal phage, anti-CD28 scFv, with or without CD28 soluble protein (Peptide-9 library). The assay is classed as binding. The following applies: for Background signal: background (no anti-CD28 scFv). How it is done: Clonal phage were harvested as crude supernatants and screened via standard enzyme linked immunosorbent assays (ELISAs). […] Prior to the addition of clonal phage, wells were incubated with blocking buffer and CD28 soluble protein or blocking buffer alone. Without washing or aspirating, clonal phage supernatants were then added to the wells and incubated for a short time. Wells were then washed followed by detection of bound phage using a horse radish peroxidase conjugated anti-M13 antibody. Clonal phage of interest were then sent for sequence analysis.
(In general: ELISA stands for enzyme-linked immunosorbent assay.)

Sequence of anti-CD28 scFv (as listed by the source): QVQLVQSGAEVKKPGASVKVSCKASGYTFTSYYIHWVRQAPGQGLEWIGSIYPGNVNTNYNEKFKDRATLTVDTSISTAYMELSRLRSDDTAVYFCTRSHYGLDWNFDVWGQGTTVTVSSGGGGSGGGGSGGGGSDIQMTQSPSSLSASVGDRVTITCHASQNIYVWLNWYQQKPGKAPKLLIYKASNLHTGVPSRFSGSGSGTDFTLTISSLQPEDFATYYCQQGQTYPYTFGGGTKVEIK

The substance Phage-141 (MDWCPRSLWNVCFF) showed a Background signal (Peptide-9 library) of 0.106. With “Phage-269 (DSFCTWSAWQECGR; not fully specified; cysteine pairing not given here)”, the Background signal was 0.072. The same measure, in the same setting: in the case of “Phage-270 (MDWCPRDFWAFCFF; cysteine pairing not given here; also: large carriers left off)” it was 0.118; in that of “Phage-271 (MDWCPTSFWNRCFH; not fully specified; cysteine pairing not given here; also: large carriers left off)”, 0.102. Consider “Phage-272 (MVWCMSVGWAVCLN; cysteine pairing not given here; also: large carriers left off)”, for which the Background signal amounted to 0.289. For “Phage-273 (IDWCPTAGWTYCWF; not fully specified; cysteine pairing not given here)”, the Background signal turned out to be 0.071. The “CD28 scFv signal in presence of CD28” value (binding to anti-CD28 scFv in presence of CD28 soluble protein) is 0.075. Turning to “Phage-274 (WVSCLRHHWLECFH; not fully specified; cysteine pairing not given here)”, the Background signal was 0.781.

In turn, “Phage-275 (MDWCPRDHWVDCYS; not fully specified; cysteine pairing not given here)” gave a Background signal of 0.172.

“Phage-276 (IDWCPKIHWDLCYF; not fully specified; cysteine pairing not given here)” registered a Background signal of 0.072.

With “Phage-277 (MDWCPRSHWSECFS; not fully specified; cysteine pairing not given here)”, the Background signal worked out at 0.080.

“Phage-279 (MDWCPRYLWAECFN; not fully specified; cysteine pairing not given here)” returned a Background signal of 0.068. Phage-280 (MDWCPRYLWDYCFA): the Background signal turned out to be 0.073. Phage-281 (MDWCPRSLWFLCFN) displayed a Background signal of 1.110.

In the case of Phage-282 (MDWCPRDLWFACFA), the Background signal is reported as 0.060. The same measure, in the same setting: in the case of Phage-283 (MDWCPRHLWNECFN) it was 0.079; in that of Phage-285 (MDWCPRDLWAMCFA), 0.071; in that of Phage-286 (MERCPRYLWHMCYS), 0.164. Phage-288 (MDWCPIALWDFCFA): the Background signal was 0.073. Still for that read-out and setting: next, Phage-290 (MDWCPRDLWSVCFS): 0.090. As for Phage-291 (MDWCPRYLWHVCFY), the Background signal is 0.227. For the substance Phage-292 (MDWCPRALWDHCFF), the Background signal is listed as 0.081. In turn, Phage-293 (MDWCPRHLWFECFN) had a Background signal of 0.064. The substance Phage-294 (MDWCPRSLWDYCFA) registered a Background signal of 0.115. Turning to Phage-299 (MDWCPIYLWAECFN), the Background signal came out at 0.078. Take Phage-300 (MDWCPRHLWFECFF): the Background signal is 0.178. Still for that read-out and setting: next, Phage-301 (MDWCPRYLWHECFF): 0.082. In the case of Phage-302 (MDWCPRYLWHVCFD), the Background signal came out at 0.068.

Substance Phage-303 (MDWCPRYLWTECFS) yielded a Background signal of 0.074. The same measure, in the same setting: next, Phage-304 (MDWCPKFLWDECFA): 0.311. Phage-305 (MDWCPRDLWTECFS) yielded a Background signal of 0.080.

As to Phage-306 (MDWCPRHLWNECFA), the Background signal worked out at 0.068.

In turn, Phage-307 (MDWCPRYLWPVCFH) showed a Background signal of 0.179. For Phage-308 (MDWCPKSLWAECFN), the Background signal is given as 0.395. For the substance Phage-309 (MDWCPMFLWHECFN), the Background signal was found to be 0.170. Phage-310 (MDWCPRDLWDECFN) yielded a Background signal of 0.066.

Turning to Phage-311 (MDWCPRDLWYQCFN), the Background signal is 0.069. Phage-313 (MDWCPRSLWNYCFN) returned a Background signal of 0.076. As to Phage-314 (MDWCPIHLWNECFN), the Background signal is recorded as 0.074. Phage-315 (MDWCPTYLWHVCFS) came in with a Background signal of 0.089. For Phage-316 (MDWCPRSLWNYCFA), the Background signal is listed as 0.067. In turn, Phage-317 (MDWCPRHLWHECFT) displayed a Background signal of 0.103. For Phage-318 (MDWCPMFLWDECFN), the Background signal is 0.132. On to Phage-319 (MSWCPRDLWHLCFF), for which the Background signal is on record as 0.077.

On to Phage-320 (MDWCPTYLWNECFN), for which the Background signal is on record as 0.120. On the same count and under the same terms, next, Phage-321 (MDWCPRDLWYVCFA): 0.095. In turn, Phage-322 (MDWCPRHLWIECFN) yielded a Background signal of 0.339. With Phage-323 (MDWCPTYLWNVCFA), the Background signal is 0.085. Phage-324 (MDWCPRHLWYECFS) yielded a Background signal of 0.216.

Phage-325 (MDWCPAYLWDECFA) came in with a Background signal of 0.096. Phage-326 (MFWCPITLWNECFN) showed a Background signal of 0.075. Phage-327 (MHWCPRDLWHVCFN) showed a Background signal of 0.071.

Consider Phage-328 (MDWCPRALWDHCFN), for which the Background signal is 0.323. On the same count and under the same terms, in the case of Phage-329 (MDWCPRALWNVCFA) it was 0.071. Phage-330 (MDWCPRFLWDVCFN): the Background signal amounted to 0.100. Same read-out and setting: in the case of Phage-331 (MDWCPRHLWDECFY) it was 0.098. For the substance Phage-332 (IDWCPRALWDACLA), the Background signal stood at 0.269.

Phage-333 (MDWCPTDLWHECFA) registered a Background signal of 0.078.

As to Phage-334 (MDWCPRYLWDECFS), the Background signal is on record as 0.069. In the case of Phage-335 (MDWCPRFLWDYCFA), the Background signal amounted to 0.146. Phage-336 (MDWCPRDLWNWCFN): the Background signal is listed as 0.139. Turning to Phage-337 (MDWCPKPLWHVCFA), the Background signal worked out at 0.069. Still for that read-out and setting: in the case of Phage-338 (MDWCPRFLWNECFY) it was 0.143.

Phage-339 (MDWCPRTLWDQCFF) gave a Background signal of 0.088.

Substance Phage-340 (MSWCPIDLWSECFA) gave a Background signal of 0.072. The same measure, in the same setting: next, Phage-341 (MDWCPRHLWDECFN): 0.084; Phage-342 (MDWCPRNLWHECFA): 0.067; Phage-343 (MDWCPRDLWTQCFF): 0.065.

Phage-344 (MDWCPRHLWVHCFS) yielded a Background signal of 0.096. In turn, Phage-345 (MDFCPRFLWHECFN) had a Background signal of 0.063.

The substance Phage-346 (MDWCPRHLWHACFS) had a Background signal of 0.073. Phage-347 (MDWCPLFLWDQCFN) gave a Background signal of 0.116. In the case of Phage-348 (MAWCPWYLWDECFN), the Background signal is 0.200. The substance Phage-349 (LDWCPRHLWALCFN) showed a Background signal of 0.073.

In turn, Phage-350 (MDWCPWFLWNECFN) registered a Background signal of 0.158. Substance Phage-351 (MDWCPMNLWHECFA) had a Background signal of 0.080. The substance Phage-352 (MDWCPIHLWYECFN) displayed a Background signal of 0.080.

Phage-353 (IDWCPLHLWHECYH) showed a Background signal of 0.067. Phage-354 (MDWCPRYLWLECFN) displayed a Background signal of 0.083. On to Phage-356 (MDWCPMYLWDECFF), for which the Background signal turned out to be 0.082. As to Phage-357 (MDWCPRLLWHECFN), the Background signal is recorded as 0.071. Turning to Phage-359 (MDWCPRPLWHECFA), the Background signal is recorded as 0.063. Regarding Phage-360 (MDWCPMFLWHECFS), the Background signal turned out to be 0.092. On the same count and under the same terms, next, Phage-361 (MHWCPRHLWSECFN): 0.165; Phage-362 (MDWCPRILWHECFS): 0.064. For Phage-363 (MNWCPMHLWAECFN), the Background signal is given as 0.087. Phage-364 (MDWCPRSLWAQCFY) showed a Background signal of 0.067. Same read-out and setting: next, Phage-365 (MDWCPSYLWPVCFN): 0.079; Phage-366 (MHWCPLYLWDECFY): 0.153; Phage-367 (MDWCPSFLWYECFN): 0.063. The substance Phage-368 (MSWCPPYLWTVCYN) showed a Background signal of 0.176. Substance Phage-369 (MHWCPRDLWYECFA) registered a Background signal of 0.072.

Substance Phage-370 (MTWCPAYLWHECFN) displayed a Background signal of 0.086. The same measure, in the same setting: in the case of Phage-371 (MAWCPRYLWAECFF) it was 0.510; in that of Phage-372 (MDWCPRYLWVDCFA), 0.095. Phage-373 (MDWCPRILWSDCFN) had a Background signal of 0.082.

On to Phage-374 (MAWCPLDLWDKCFY), for which the Background signal is given as 0.079. In the case of Phage-375 (MNWCPRALWHECFL), the Background signal was found to be 0.085.

The substance Phage-376 (MDWCPRHLWTYCFH) came in with a Background signal of 0.109. Substance Phage-377 (MDWCPFDLWLECFN) yielded a Background signal of 0.087. Regarding Phage-378 (MHWCPLHLWNECFA), the Background signal is on record as 0.065. The substance Phage-379 (MDWCPRNLWAECFS) returned a Background signal of 0.061.

In turn, Phage-380 (MDYCPSYLWHECFA) showed a Background signal of 0.065. Take Phage-381 (MAWCPRILWHQCFN): the Background signal is 0.113.
